Measured values from ChEMBL document CHEMBL1201862, “PubChem BioAssay data set” (2004).
The source made the active and inactive calls.

Legend:
[1] = biological target: T1, Heat shock factor protein 1 (Mus musculus, UniProt P38532); experiment: enhancement of HSF1-driven luciferase signal – cell-based, NIH3T3, luminescence, dose retest, confirmation (AID 435004); assay type: functional;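 also: stress induced by proteasome inhibitor MG132 added 30 min after compound; luciferase reporter driven by HSF1 response element in NIH3T3 cells; actives raise luminescence as potentiators of the MG132 stress response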
T1 sequence (P38532 whole entry): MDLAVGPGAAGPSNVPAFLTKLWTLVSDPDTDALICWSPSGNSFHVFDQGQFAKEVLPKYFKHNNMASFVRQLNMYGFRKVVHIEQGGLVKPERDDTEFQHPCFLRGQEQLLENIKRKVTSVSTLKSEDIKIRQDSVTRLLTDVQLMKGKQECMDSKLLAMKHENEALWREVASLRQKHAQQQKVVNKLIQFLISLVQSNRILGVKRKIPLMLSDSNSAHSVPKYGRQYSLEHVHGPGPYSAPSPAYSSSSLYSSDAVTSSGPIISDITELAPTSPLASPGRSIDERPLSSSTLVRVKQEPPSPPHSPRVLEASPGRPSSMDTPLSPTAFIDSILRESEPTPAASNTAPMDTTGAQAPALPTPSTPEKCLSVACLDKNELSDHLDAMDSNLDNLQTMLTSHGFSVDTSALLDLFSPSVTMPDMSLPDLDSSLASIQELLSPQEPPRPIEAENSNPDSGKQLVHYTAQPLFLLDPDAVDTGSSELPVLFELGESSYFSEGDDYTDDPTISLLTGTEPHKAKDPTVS

cells = assay type: functional
Cytochrome P450 1A2 = biological target: T2, Cytochrome P450 1A2 (Homo sapiens, UniProt P05177);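 also: PubChem cytochrome P450 panel assay, CYP1A2 panel member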
T2 sequence (P05177 whole entry): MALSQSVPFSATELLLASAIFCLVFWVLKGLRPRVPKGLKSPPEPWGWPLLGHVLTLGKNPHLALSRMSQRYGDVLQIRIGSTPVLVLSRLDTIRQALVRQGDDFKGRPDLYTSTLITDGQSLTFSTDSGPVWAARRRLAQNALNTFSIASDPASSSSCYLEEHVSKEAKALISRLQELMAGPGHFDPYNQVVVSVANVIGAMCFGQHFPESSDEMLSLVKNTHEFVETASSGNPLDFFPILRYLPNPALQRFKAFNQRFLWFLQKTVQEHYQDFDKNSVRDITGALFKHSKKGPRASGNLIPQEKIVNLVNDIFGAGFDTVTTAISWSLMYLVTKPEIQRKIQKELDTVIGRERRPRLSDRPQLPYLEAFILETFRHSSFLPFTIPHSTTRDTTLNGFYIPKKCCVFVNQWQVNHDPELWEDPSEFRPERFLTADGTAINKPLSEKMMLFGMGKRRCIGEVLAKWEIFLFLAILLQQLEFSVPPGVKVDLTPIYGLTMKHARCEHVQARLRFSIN

[2] = biological target: T3, Corticotropin-releasing factor receptor 2/Corticotropin-releasing factor-binding protein (Homo sapiens, UniProt P24387+Q13324); experiment: Dose Response confirmation of uHTS hits for small molecule antagonists of the CRF-binding protein and CRF-R2 receptor complex.; assay type: functional; settings: read-out: IC50_Mean
T3 sequence (Q13324 whole entry): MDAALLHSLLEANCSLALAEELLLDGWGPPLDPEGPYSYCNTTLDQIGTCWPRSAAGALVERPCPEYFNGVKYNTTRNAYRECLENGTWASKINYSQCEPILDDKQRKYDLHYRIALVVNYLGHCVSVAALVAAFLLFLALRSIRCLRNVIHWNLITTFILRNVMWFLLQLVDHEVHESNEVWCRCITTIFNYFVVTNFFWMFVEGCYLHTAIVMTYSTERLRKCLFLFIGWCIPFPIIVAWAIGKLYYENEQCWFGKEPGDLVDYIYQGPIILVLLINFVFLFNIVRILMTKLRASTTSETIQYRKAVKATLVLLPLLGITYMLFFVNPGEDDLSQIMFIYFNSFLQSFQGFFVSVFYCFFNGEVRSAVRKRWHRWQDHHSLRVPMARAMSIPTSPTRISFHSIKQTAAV
T3 sequence (P24387 whole entry): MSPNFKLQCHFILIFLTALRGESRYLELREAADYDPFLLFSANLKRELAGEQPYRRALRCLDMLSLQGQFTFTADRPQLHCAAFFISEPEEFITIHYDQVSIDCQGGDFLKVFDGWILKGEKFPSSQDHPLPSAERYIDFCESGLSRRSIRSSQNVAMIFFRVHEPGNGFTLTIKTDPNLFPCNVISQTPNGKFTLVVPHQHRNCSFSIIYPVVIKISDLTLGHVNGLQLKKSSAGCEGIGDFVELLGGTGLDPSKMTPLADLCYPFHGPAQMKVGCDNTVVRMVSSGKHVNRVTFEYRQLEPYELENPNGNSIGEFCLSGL

[3] = biological target: T3, Corticotropin-releasing factor receptor 2/Corticotropin-releasing factor-binding protein; experiment: activators of CRF receptor 2 with binding protein – uHTS hits, confirmation (AID 602473); assay type: functional; settings: read-out: EC50_Mean
Cytochrome P450 2D6 = Cytochrome P450 2D6 (Homo sapiens, UniProt P10635);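 also: CYP2D6 member of a cytochrome P450 panel assay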
Cytochrome P450 2C9 = Cytochrome P450 2C9 (Homo sapiens, UniProt P11712)
Cytochrome P450 2C19 = Cytochrome P450 2C19 (Homo sapiens, UniProt P33261); experiment: Cytochrome panel assay with activity outcomes. Panel member name: p450-cyp2c19 Compounds with AC50 equal or less than 10 uM are considered active; assay type: functional
Protein skinhead-1 = biological target: T4, Protein skinhead-1 (Caenorhabditis elegans, UniProt P34707); assay type: functional
T4 sequence (P34707 whole entry): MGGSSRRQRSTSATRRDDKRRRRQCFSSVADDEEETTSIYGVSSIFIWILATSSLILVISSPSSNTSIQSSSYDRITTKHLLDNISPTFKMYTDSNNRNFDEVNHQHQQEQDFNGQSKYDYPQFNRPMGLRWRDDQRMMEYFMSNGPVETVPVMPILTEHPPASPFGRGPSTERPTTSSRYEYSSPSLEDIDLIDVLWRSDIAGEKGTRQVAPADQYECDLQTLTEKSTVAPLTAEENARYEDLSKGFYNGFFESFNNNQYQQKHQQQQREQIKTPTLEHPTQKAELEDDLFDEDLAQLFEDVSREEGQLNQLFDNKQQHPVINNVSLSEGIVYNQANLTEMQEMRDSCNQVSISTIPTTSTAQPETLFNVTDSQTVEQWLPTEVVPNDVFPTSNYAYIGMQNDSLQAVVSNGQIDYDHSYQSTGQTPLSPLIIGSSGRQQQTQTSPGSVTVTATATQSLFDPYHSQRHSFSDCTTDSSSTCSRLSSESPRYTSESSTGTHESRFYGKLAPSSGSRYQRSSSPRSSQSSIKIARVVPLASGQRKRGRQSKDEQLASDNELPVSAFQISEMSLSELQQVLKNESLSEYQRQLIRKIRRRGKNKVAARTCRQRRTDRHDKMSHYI

H9c2 = experiment: cells; assay type: functional, cell-based; settings: Rattus norvegicus, H9c2, Myocardium;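 also: confirmatory concentration-response retest of ultra-high-throughput screening hits for modulation of myocardial damage; cell death induced by hydrogen peroxide oxidative stress; compound pretreatment for 60 min then peroxide exposure for 2 h; potency is for protecting the cells against peroxide damage rather than for killing them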
Cytochrome P450 3A4 = Cytochrome P450 3A4 (Homo sapiens, UniProt P08684);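 also: CYP3A4 tested as one member of a cytochrome P450 panel screen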
[4] = Luminescence Cell-Based Dose Retest to Confirm Inhibitors of Cancer Stem Cells. [Related pubchem assays (depositor defined):AID2717, AID2721]; assay type: functional; settings: Homo sapiens

Sequence of Cytochrome P450 3A4 (P08684 whole entry): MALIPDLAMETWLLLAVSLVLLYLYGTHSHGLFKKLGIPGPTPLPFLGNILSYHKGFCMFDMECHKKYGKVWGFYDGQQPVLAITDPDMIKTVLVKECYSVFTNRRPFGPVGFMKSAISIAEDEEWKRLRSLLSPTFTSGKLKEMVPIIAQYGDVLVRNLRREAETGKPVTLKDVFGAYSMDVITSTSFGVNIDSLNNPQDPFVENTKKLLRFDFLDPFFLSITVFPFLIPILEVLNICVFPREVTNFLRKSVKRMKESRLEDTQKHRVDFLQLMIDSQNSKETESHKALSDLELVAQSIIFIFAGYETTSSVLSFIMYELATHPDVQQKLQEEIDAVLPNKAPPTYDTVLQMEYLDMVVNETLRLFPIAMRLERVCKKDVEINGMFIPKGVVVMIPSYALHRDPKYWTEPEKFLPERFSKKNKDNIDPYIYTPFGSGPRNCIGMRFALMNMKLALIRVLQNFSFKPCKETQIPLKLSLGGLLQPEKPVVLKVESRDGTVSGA
Sequence of Cytochrome P450 2C19 (P33261 whole entry): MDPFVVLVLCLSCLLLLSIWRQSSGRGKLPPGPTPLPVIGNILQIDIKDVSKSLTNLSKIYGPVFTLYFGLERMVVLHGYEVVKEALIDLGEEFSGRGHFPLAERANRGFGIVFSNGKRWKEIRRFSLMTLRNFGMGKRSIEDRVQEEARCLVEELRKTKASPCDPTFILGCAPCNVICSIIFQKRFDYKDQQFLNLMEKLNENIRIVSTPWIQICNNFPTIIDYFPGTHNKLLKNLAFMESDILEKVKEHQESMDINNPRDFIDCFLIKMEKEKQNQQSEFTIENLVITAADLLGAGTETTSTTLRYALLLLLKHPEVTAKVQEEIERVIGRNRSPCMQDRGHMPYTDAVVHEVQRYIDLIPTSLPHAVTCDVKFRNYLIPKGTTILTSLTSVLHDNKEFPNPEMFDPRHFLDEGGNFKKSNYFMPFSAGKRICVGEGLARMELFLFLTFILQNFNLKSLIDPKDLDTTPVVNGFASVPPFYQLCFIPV
Sequence of Cytochrome P450 2C9 (P11712 whole entry): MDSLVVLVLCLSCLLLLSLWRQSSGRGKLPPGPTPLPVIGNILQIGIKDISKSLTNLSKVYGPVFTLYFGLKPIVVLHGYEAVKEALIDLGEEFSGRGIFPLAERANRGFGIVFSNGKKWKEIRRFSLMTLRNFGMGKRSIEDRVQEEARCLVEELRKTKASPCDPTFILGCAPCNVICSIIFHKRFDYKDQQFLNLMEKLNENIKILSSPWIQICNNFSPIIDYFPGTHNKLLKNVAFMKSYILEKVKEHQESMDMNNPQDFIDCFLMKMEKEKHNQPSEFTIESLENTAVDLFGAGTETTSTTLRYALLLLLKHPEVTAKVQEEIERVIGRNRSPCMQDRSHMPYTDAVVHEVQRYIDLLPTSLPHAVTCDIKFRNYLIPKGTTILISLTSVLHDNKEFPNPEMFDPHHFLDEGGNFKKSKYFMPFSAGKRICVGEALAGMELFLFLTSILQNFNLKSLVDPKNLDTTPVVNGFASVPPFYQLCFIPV
Sequence of Cytochrome P450 2D6 (P10635 whole entry): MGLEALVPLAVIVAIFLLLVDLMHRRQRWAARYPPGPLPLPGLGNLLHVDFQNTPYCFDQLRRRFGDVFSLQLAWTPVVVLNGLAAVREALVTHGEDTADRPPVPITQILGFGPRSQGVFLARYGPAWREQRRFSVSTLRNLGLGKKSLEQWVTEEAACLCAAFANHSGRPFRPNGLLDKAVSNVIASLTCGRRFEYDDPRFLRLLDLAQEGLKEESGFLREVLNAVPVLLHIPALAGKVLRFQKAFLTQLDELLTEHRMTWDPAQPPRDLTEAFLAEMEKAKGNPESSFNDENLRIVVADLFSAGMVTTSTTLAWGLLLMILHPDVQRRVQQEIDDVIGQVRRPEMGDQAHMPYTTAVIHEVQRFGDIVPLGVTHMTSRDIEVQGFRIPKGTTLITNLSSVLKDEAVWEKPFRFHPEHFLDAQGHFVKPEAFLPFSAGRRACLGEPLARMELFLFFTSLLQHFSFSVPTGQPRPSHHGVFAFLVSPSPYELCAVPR

CCC(C)NC(=O)CC(NS(=O)(=O)c1ccc(Cl)cc1)c1ccco1 (centres undefined)
EC50 [1]: > 260 µM (inactive)

COC(=O)c1cc(/C=C/c2ccccc2)on1
IC50 (cells): 5.44 µM (active)
AC50 (Cytochrome P450 1A2): 2 µM (inconclusive)

O=C(CSc1nc2ccccc2n1CCc1ccccc1)NC1CCS(=O)(=O)C1 (centres undefined)
IC50 [2]: > 47.1 µM (inactive)
EC50 [3]: > 53 µM (inactive)

O=C(Nc1ccc(Cl)cc1)OCc1cc(-c2ccccc2)on1
AC50 (Cytochrome P450 2D6): 3.98 µM (inconclusive)
AC50 (Cytochrome P450 2C9): 2.82 µM (inconclusive)

CCN1C(=O)C2(SC(NC(C)=O)=NN2C(C)=O)c2cc(C)ccc21 (centres undefined)
AC50 (Cytochrome P450 2C19; read-out: AC50): 14.1 µM (inconclusive)
AC50 (Cytochrome P450 2C9): 31.6 µM (inconclusive)

Cc1ccc(C(=O)OCC(=O)N2CCCCCC2)c(O)c1
IC50 (cells): 11.1 µM (active)

CCOc1ccc(S(=O)(=O)NCCSc2ccccc2)cc1
EC50 [1]: > 260 µM (inactive)

CCOC(=O)CN1NC2(CCCC(C)C2)N=C1S (centres undefined)
IC50 (cells): 48.9 µM (active)

Clc1ccc(Nc2ncnc3c2cnn3-c2ccccc2)cc1
IC50 (Protein skinhead-1): > 100 µM (inactive)

CCOC(=O)C1CCN(C(=O)COc2cc(C)c(Br)c(C)c2)CC1
IC50 (cells): 30.2 µM (active)

Cc1cccc(C)c1NCc1nnc(SCC(=O)Nc2nc(-c3ccccc3)cs2)n1-c1ccccc1
EC50 [1]: > 260 µM (inactive)

O=[N+]([O-])c1ccc(Cc2nnc(O)c3ccccc23)cc1
IC50 (H9c2): > 79 µM (inactive)
IC50 (Protein skinhead-1): > 100 µM (inactive)

Cc1ccc(C(=O)N(C)CC(=O)Nc2ccc(N3CCOCC3)cc2)s1
IC50 (Protein skinhead-1): > 100 µM (inactive)

COc1cc(/C=C/c2ccc3c([N+](=O)[O-])cccc3n2)ccc1OCC(=O)O
IC50 (cells): 2.39 µM (active)

CC(=O)Oc1ccc(/C=C2\N=C(C3CCCCC3)OC2=O)cc1
IC50 (cells): 33.9 µM (active)

Cc1ccc(N2Cc3ccccc3OC(C)C2=O)cc1 (centres undefined)
EC50 [1]: > 260 µM (inactive)

CC(C)[C@@H]1O[C@H](/C=C\c2ccccc2)OCC1(C)C
AC50 (Cytochrome P450 2C19; read-out: AC50): 5.01 µM (inconclusive)
AC50 (Cytochrome P450 3A4): 5.01 µM (inconclusive)
AC50 (Cytochrome P450 2C9): 3.16 µM (inconclusive)

Cc1ccc(/C=C2\OC(=O)c3ccccc32)cc1
AC50 (Cytochrome P450 2C9): 0.355 µM (inconclusive)

COc1ccc(CNC(=O)c2sc(=S)n(-c3ccc(OC)cc3)c2N)cc1
IC50 [2]: > 47.1 µM (inactive)
EC50 [3]: > 53 µM (inactive)

COc1ccc([N+](=O)[O-])cc1NCc1ccccc1C
AC50 (Cytochrome P450 2D6): 17.8 µM (inconclusive)
AC50 (Cytochrome P450 2C9): 17.8 µM (inconclusive)

O=C(CCN1CCCCC1=O)NC1CCCN(Cc2ccc(Cl)cc2)C1 (centres undefined)
IC50 [2]: > 47.1 µM (inactive)
EC50 [3]: > 53 µM (inactive)

CC(=O)CSc1nc2ccccc2s1
IC50 (Protein skinhead-1): > 100 µM (inactive)

COC(=O)C1=C(C)N(c2ccc(OC)cc2)C(C)=C(C(=O)OC)C1c1ccccc1
IC50 [2]: > 47.1 µM (inactive)
EC50 [3]: > 53 µM (inactive)

CN(C)/C=C/C(=O)c1cccc(Oc2ncccn2)c1
EC50 [1]: > 260 µM (inactive)

CC(C)(CN)CC(=O)O
EC50 [1]: > 260 µM (inactive)

Cc1cccc(-c2noc(C(C)NC(=O)c3ccco3)n2)c1 (centres undefined)
IC50 [2]: > 47.1 µM (inactive)
EC50 [3]: > 53 µM (inactive)

COC(=O)C(C)Sc1nc2c(c(=O)n(C)c(=O)n2C)n1CCC(C)C (centres undefined)
EC50 [1]: > 260 µM (inactive)

O=[N+]([O-])c1cccc2ccc(/C=C/c3ccc(F)cc3)nc12
IC50 (Protein skinhead-1): > 100 µM (inactive)

O=C1CC(N(Cc2ccc3c(c2)OCO3)C(=O)Nc2ccc(F)cc2)C(=O)N1c1ccccc1 (centres undefined)
EC50 [1]: > 260 µM (inactive)

CC(/C=C/c1cccs1)=C\C(=O)O
EC50 [1]: > 260 µM (inactive)

CCc1ccc(-n2c(SCC(=O)Nc3cc(C)[nH]n3)nc3nncc-3c2O)cc1
IC50 (Protein skinhead-1): > 100 µM (inactive)

CCOC(=O)C1=C(C)N=C(C)/C(=C(\O)OCC)C1c1sccc1C (centres undefined)
AC50 (Cytochrome P450 2C9): 0.891 µM (inconclusive)

O=C(O)c1ccc2c(c1)CCCN2
IC50 (Protein skinhead-1): > 100 µM (inactive)

Cc1noc(C(F)(F)F)c1C(=O)NNC(=O)c1cccc(C(F)(F)F)c1
IC50 [2]: > 47.1 µM (inactive)
EC50 [3]: > 53 µM (inactive)

Cc1ccc(-n2nc3c(c2NC(=O)c2ccc(OC(C)C)cc2)C[S+]([O-])C3)cc1 (centres undefined)
IC50 [2]: > 47.1 µM (inactive)
EC50 [3]: > 53 µM (inactive)

NC(=O)c1ccc([N+](=O)[O-])cc1SCc1ccccc1
AC50 (Cytochrome P450 3A4): 12.6 µM (inconclusive)
AC50 (Cytochrome P450 2C9): 28.2 µM (inconclusive)

COc1ccc(OC)c(-n2c(=O)c3ccccc3c3ccccc3c2=O)c1
EC50 [1]: 30.2 µM (active)

CCCCc1cc(=O)oc2cc(OCC(=O)N(CC)CC)ccc12
AC50 (Cytochrome P450 2C19; read-out: AC50): 31.6 µM (inconclusive)
AC50 (Cytochrome P450 2C9): 25.1 µM (inconclusive)

O=C1Nc2ccccc2C(O)(C(=O)NCc2ccco2)N1c1ccc(Cl)c(Cl)c1 (centres undefined)
IC50 (Protein skinhead-1): > 100 µM (inactive)

Cc1ccc(C(=O)NC(=S)Nc2cccc3nsnc23)cc1
AC50 (Cytochrome P450 2C19): inconclusive
AC50 (Cytochrome P450 2C9): 35.5 µM (inconclusive)

Nc1cc2c(cc1Cl)-c1ccccc1C2
IC50 (Protein skinhead-1): 52.5 µM (inactive)

CC(C)N(C(=O)C[n+]1ccsc1N)c1ccccc1
IC50 [2]: > 47.1 µM (inactive)
EC50 [3]: > 53 µM (inactive)

COc1ccccc1C(=O)NCCC(=O)N1CCN(c2ccccc2O)CC1
IC50 [2]: > 47.1 µM (inactive)
EC50 [3]: > 53 µM (inactive)

Cc1cccn2c(/C=N/OCc3cccc(F)c3)c(-c3ccc(Cl)cc3)nc12
AC50 [4]: 4.13 µM (active)
IC50 [2]: > 47.1 µM (inactive)
EC50 [3]: > 53 µM (inactive)
AC50 (Cytochrome P450 3A4): 14.1 µM (inconclusive)

C/C(=N\OCC(=O)Nc1ccc(F)c(F)c1F)c1cc2ccccc2o1
IC50 [2]: > 47.1 µM (inactive)
EC50 [3]: > 53 µM (inactive)

O=[N+]([O-])c1ccc(/C=N/NS(=O)(=O)c2ccc(Cl)cc2)o1
IC50 (cells): 6.23 µM (active)
